# According to patent US9353150B2, “Substituted pyrazino[1′,2′:1 ,5]pyrrolo[2,3-b]-indole-1,4-diones for cancer treatment” (Massachusetts Institute of Technology, priority 2012, dated 2016):
# Like-named read-outs stand apart in the source and are kept apart here.
# Tests used:
# [1] = test system: U-937 (hystiocytic lymphoma); experiment: 72-hour IC50 determination for non-adherent cells using MTS; format: cell-based, human
# Description: (§1) Certain synthesized compounds were screened for their ability to induce death in two human cancer cell lines: U-937 (leukemic monocyte lymphoma) and HeLa (cervical cancer).
# (§2) Cells were grown in media supplemented with fetal bovine serum (FBS) and antibiotics ([…]). Specifically, experiments were performed using the following cell lines and media compositions: U-937, HeLa, H460, and 786-O (RPMI-1640+10% FBS), and MCF7 (EMEM+10% FBS). Cells were incubated at 37° C. in a 5% CO2, 95% humidity atmosphere.
# (§3) In a 96-well plate, compounds were pre-added as DMSO stocks in triplicate to achieve a final concentration of 1%. DMSO and cell-free wells served as the live and dead control, respectively. U-937 (5,000 cells/well) cells were distributed in 100 μL media to the compound-containing plate. After 72 hours, cell viability was assessed by adding 20 μL of a PMS/MTS solution (Cory, A. H.; Owen, T. C.; Barltrop, J. A.; Cory, J. G. Cancer Commun. 1991, 3, 207) to each well, allowing the dye to develop at 37° C. until the live control had processed MTS, and reading the absorbance at λ=490 nm. IC50 values were determined from three or more independent experiments using TableCurve (San Jose, Calif.).
# [2] = test system: HeLa (cervical carcinoma); experiment: 72-hour IC50 determination for adherent cells using sulforhodamine B (SRB); format: cell-based, human
# Description: as §1, §2
# (§4) Adherent cells (HeLa, H460, 786-O, and MCF7) were added into 96-well plates (5,000 cells/well for HeLa cell line; 2,000 cells/well for H460, 786-O, and MCF7 cell lines) in 100 μL media and were allowed to adhere for 2-3 hours. Compounds were solubilized in DMSO as 100× stocks, added directly to the cells (100 μL final volume), and tested over a range of concentrations in triplicate (1% DMSO final) on a half-log scale. Concentrations tested ranged from […] to 10 μM, depending on the potency of the compound. DMSO and cell-free wells served as the live and dead control, respectively. After 72 hours of continuous exposure, the plates were evaluated using the SRB colorimetric assay as described previously (Vichai, V.; Kirtikara, K. Nature Prot. 2006, 1, 1112). Briefly, media was removed from the plate, and cells were fixed by the addition of 100 μL cold 10% trichloroacetic acid in water. After incubating at 4° C. for an hour, the plates were washed in water and allowed to dry. Sulforhodamine B was added as a 0.057% solution in 1% acetic acid (100 μL), and the plates were incubated at room temperature for 30 minutes, washed in 1% acetic acid, and allowed to dry. The dye was solubilized by adding 10 mM Tris base solution (pH 10.5, 200 μL) and incubating at room temperature for 30 minutes. Plates were read at λ=510 nm. IC50 values were determined from three or more independent experiments using TableCurve (San Jose, Calif.).
# 786-O (renal carcinoma) = experiment: as above; format: cell-based, human; settings: error is standard deviation of the mean, n ≧ 3, read-out: 786-O, 72-hour IC50 (Table E1-2)
# Description: (§5) Certain provided compounds were tested in culture against a panel of three supplementary human cancer cell lines representing three additional tumor histologies (H460, lung carcinoma; 786-O, renal carcinoma; MCF-7, breast carcinoma). As shown in Table E1-2, the ETPs retain their potency across the cell lines. In some embodiments, a provided compound is active in all cell lines. In some embodiments, a provide compound can be used to selectively target certain cells and/or cancers. […] Without the intention to be limited, Applicant notes that certain cell lines could be more sensitive to provided compounds; for example, U-937 and HeLa are slightly more sensitive to the ETPs than the other three cell lines.
# as §2, §4
# H460 (lung carcinoma) = experiment: as above; format: cell-based, human; settings: error is standard deviation of the mean, n ≧ 3, read-out: H460, 72-hour IC50 (Table E1-2)
# Description: as §5, §2, §4
# MCF-7 (breast carcinoma) = experiment: as above; format: cell-based, human; settings: error is standard deviation of the mean, n ≧ 3, read-out: MCF-7, 72-hour IC50 (Table E1-2)
# Description: as §5, §2, §4
# human cancer cell lines = experiment: Anticancer activity in human cancer cell lines, not tied to one cell line; format: cell-based; settings: for anticancer activity, in words: human cancer cell lines, 72-hour exposure
# Description: as §1, §5, §4, §3
# [3] = Stability observed on isolation (concentration / solution); settings: observed during isolation and characterization
# [4] = Homo sapiens, 786-0, 72-hour exposure
# [5] = Homo sapiens, NCI-H460, 72-hour exposure
# [6] = Homo sapiens, MCF7, 72-hour exposure
# [7] = Homo sapiens, U-937, 72-hour exposure, MTS, error is standard deviation of the mean, n ≧ 3, read-out: U-937, 72-hour IC50 (Table E1-1)
# [8] = Homo sapiens, U-937, 72-hour exposure, MTS, error is standard deviation of the mean, n ≧ 3, read-out: U-937, 72-hour IC50 (Table E1-2)
# [9] = Homo sapiens, HeLa, 72-hour exposure, SRB, error is standard deviation of the mean, n ≧ 3, read-out: HeLa, 72-hour IC50 (Table E1-1)
# [10] = Homo sapiens, HeLa, 72-hour exposure, SRB, error is standard deviation of the mean, n ≧ 3, read-out: HeLa, 72-hour IC50 (Table E1-2)
# [11] = 72-hour exposure, MTS, error is standard deviation of the mean, n ≧ 3, read-out: U-937, 72-hour IC50 (Table E1-1)
# [12] = 72-hour exposure, MTS, error is standard deviation of the mean, n ≧ 3, read-out: U-937, 72-hour IC50 (Table E1-2)
# [13] = 72-hour exposure, SRB, error is standard deviation of the mean, n ≧ 3, read-out: HeLa, 72-hour IC50 (Table E1-1)
# [14] = 72-hour exposure, SRB, error is standard deviation of the mean, n ≧ 3, read-out: HeLa, 72-hour IC50 (Table E1-2)
SMILES,IC50 (786-O (renal carcinoma); [4]) [nM],IC50 (H460 (lung carcinoma); [5]) [nM],IC50 (MCF-7 (breast carcinoma); [6]) [nM],"IC50 [1, 7] [nM]","IC50 [1, 8] [nM]","IC50 [2, 9] [nM]","IC50 [2, 10] [nM]",stability upon concentration or in solution [3],"IC50 [1, 11] [nM]","IC50 [1, 12] [nM]","IC50 [2, 13] [nM]","IC50 [2, 14] [nM]",IC50 (786-O (renal carcinoma); 72-hour exposure) [nM],IC50 (H460 (lung carcinoma); 72-hour exposure) [nM],IC50 (MCF-7 (breast carcinoma); 72-hour exposure) [nM],"anticancer activity, in words (human cancer cell lines)",other results
"COc1ccc([C@]23C[C@@]45SS[C@@H](C(=O)N4[C@H]2N(S(=O)(=O)c2ccccc2)c2ccccc23)N(C)C5=O)cc1 [Compound 33, C3-(p-Methoxyphenyl)epidithiodiketopiperazine]",83 ± 18,46.7 ± 5.3,63 ± 16,,,,,,,,,,,,,,"IC50 ([1]; Homo sapiens, U-937, 72 h, read-out: IC50 (U-937)): 2.8 to 14.8 nM; IC50 ([1]; Homo sapiens, U-937, 72 h, read-out: U-937, 72-hour IC50 (Table E1-1)): 5 ± 2.1 nM; IC50 ([1]; Homo sapiens, U-937, 72 h, read-out: U-937, 72-hour IC50 (Table E1-2)): 5 ± 2.1 nM; IC50 ([2]; Homo sapiens, HeLa, 72 h, read-out: HeLa, 72-hour IC50 (Table E1-1)): 22.2 ± 10.9 nM; IC50 ([2]; Homo sapiens, HeLa, 72 h, read-out: HeLa, 72-hour IC50 (Table E1-2)): 22.2 ± 10.9 nM; IC50 ([2]; Homo sapiens, HeLa, 72 h, read-out: IC50 (HeLa)): 22 to 75 nM; change in activity across cell lines (human cancer cell lines; five cell lines of Table E1-2): 4 fold"
"CN1C(=O)[C@@]23C[C@]4(c5c[nH]c6ccccc56)c5ccccc5N(S(=O)(=O)c5ccccc5)[C@@H]4N2C(=O)[C@@H]1SSS3 [Compound 27, C3-(Indol-3′-yl) epitrithiodiketopiperazine]",145 ± 10,146 ± 6.9,151 ± 31,36.6 ± 2.4,36.6 ± 2.4,27.5 ± 9.2,27.5 ± 9.2,tends to degrade,,,,,,,,,
"CN1C(=O)[C@@]23C[C@]4(c5c[nH]c6ccccc56)c5ccccc5N[C@@H]4N2C(=O)[C@@H]1SSS3 [Compound 29, C3-(Indol-3′-yl) epitrithiodiketopiperazine]",168 ± 34,348 ± 110,217 ± 35,24.5 ± 7.4,24.5 ± 7.4,123 ± 29,123 ± 29,tends to degrade,,,,,,,,,
"CN1C(=O)[C@@]23C[C@]4([C@]56C[C@@]78SS[C@@](C)(C(=O)N7[C@H]5Nc5ccccc56)N(C)C8=O)c5ccccc5N[C@@H]4N2C(=O)[C@]1(C)SS3 [Compound 3, (+)-12,12′-dideoxyverticillin A]",,,,,,,,,15.5 ± 2.9,15.5 ± 2.9,7.2 ± 3,7.2 ± 3,33.5 ± 12.6,42 ± 15,28.4 ± 4.5,active across the board,"IC50 ([1]; 72-hour exposure, read-out: IC50 (U-937)): 15.5 nM; IC50 ([2]; 72-hour exposure, read-out: IC50 (HeLa)): 7.2 nM"
"CN1C(=O)[C@@]23C[C@]4([C@]56C[C@@]78SSSS[C@@](CO)(C(=O)N7[C@H]5Nc5ccccc56)N(C)C8=O)c5ccccc5N[C@@H]4N2C(=O)[C@]1(CO)SSSS3 [Compound 6, (+)-12,12′-dideoxychetracin A]",16 ± 2.4,39.3 ± 41,22.5 ± 6,1.3 ± 0.5,1.3 ± 0.5,5.6 ± 1,5.6 ± 1,,,,,,,,,active across the board,"IC50 ([1]; Homo sapiens, U-937, 72-hour exposure, read-out: IC50 (U-937)): 0.75 to 1.3 nM; IC50 ([2]; Homo sapiens, HeLa, 72-hour exposure, read-out: IC50 (HeLa)): 5.6 to 6.9 nM"
"CN1C(=O)C23CC4(c5c[nH]c6ccccc56)c5ccccc5N(S(=O)(=O)c5ccccc5)C4N2C(=O)C1(C)SC(=S)S3 (stereo not drawn) [Compound 64, C3-(Indo-3′-v)dithiepanethiones]",,,,,,,,,24 ± 12,24 ± 12,25.3 ± 2,25.3 ± 2,266 ± 85,222 ± 72,210 ± 73,competent anticancer agents,
